From patent US20260166057A1, “1,3,5(10),16-ESTRATETRAEN-3-YL ACETATE FOR USE IN IMPROVING PSYCHOMOTOR OR COGNITIVE PERFORMANCE” (priority 2023, published 2026)
Read-outs that look alike come from different tables or passages of the source.

Assays:
[1] = adjunctive therapy for acute depressive episodes, unipolar and bipolar; cited from earlier work
[2] = at certain dosages; cited from earlier work
healthy male volunteers [3] = assay: Reaction Time Test (psychomotor performance) of the RTTET in mentally fatigued men; assay type: in vivo, human; settings: for number of errors: relative to placebo, all three non-control tests; for variability in Reaction Time test: compared to caffeine and placebo; for effect on Reaction Time test compared with caffeine: midnight and 3 a.m. tests (subjects fatigued)
US adults = settings: caffeine intake; cited from earlier work
[4] = at night during extended wakefulness; cited from earlier work
depressed patients = settings: cited from earlier work
mice = settings: forced swim test in mice; imipramine, desipramine, fluoxetine, paroxetine, escitalopram, reboxetine; cited from earlier work
healthy male volunteers [5] = assay: Time Estimation Test (cognitive performance) of the RTTET in mentally fatigued men; settings: for Time Estimation test improvement: relative to placebo
[6] = system: isolated human nasal olfactory chemosensory neurons; assay: Electrophysiology: inward currents in isolated chemosensory neurons; assay type: cell-based
[7] = system: nasal septal olfactory chemosensory epithelium; assay: Electrophysiology: depolarization of chemosensory epithelium; design: species or system human
rat estrogen receptor = assay: In vitro agonist/antagonist activity on steroid receptors; assay type: biochemical
rat androgen receptor = rat androgen receptor (Rattus norvegicus, UniProt P15207); assay: as above; assay type: biochemical
Chain of rat androgen receptor (P15207 whole entry S389L): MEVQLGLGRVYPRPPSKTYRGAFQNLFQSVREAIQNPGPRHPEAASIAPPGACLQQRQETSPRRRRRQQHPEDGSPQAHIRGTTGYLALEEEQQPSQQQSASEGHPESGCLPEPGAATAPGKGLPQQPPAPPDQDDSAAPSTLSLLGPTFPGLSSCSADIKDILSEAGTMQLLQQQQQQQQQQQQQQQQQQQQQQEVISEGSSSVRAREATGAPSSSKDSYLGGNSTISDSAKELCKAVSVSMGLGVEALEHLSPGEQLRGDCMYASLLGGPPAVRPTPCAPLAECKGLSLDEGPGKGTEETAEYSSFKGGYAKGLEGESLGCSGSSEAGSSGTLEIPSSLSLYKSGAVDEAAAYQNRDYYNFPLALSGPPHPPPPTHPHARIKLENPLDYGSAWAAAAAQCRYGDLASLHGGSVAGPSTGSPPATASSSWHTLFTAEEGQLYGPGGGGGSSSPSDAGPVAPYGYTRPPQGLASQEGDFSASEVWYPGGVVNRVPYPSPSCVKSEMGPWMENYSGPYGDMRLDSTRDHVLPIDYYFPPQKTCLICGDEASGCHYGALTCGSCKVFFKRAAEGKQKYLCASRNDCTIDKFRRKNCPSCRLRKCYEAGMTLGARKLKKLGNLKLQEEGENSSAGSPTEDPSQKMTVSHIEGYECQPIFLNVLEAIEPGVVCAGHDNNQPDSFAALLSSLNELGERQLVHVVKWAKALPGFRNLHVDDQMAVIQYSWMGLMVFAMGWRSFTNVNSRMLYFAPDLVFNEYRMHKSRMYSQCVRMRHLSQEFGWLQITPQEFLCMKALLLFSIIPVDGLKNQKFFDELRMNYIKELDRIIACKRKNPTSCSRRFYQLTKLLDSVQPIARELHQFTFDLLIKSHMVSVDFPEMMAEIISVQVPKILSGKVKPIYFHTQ

rat progestin receptor = rat progestin receptor (Rattus norvegicus, UniProt Q63449); assay: as above; assay type: biochemical
Chain of rat progestin receptor (Q63449 whole entry): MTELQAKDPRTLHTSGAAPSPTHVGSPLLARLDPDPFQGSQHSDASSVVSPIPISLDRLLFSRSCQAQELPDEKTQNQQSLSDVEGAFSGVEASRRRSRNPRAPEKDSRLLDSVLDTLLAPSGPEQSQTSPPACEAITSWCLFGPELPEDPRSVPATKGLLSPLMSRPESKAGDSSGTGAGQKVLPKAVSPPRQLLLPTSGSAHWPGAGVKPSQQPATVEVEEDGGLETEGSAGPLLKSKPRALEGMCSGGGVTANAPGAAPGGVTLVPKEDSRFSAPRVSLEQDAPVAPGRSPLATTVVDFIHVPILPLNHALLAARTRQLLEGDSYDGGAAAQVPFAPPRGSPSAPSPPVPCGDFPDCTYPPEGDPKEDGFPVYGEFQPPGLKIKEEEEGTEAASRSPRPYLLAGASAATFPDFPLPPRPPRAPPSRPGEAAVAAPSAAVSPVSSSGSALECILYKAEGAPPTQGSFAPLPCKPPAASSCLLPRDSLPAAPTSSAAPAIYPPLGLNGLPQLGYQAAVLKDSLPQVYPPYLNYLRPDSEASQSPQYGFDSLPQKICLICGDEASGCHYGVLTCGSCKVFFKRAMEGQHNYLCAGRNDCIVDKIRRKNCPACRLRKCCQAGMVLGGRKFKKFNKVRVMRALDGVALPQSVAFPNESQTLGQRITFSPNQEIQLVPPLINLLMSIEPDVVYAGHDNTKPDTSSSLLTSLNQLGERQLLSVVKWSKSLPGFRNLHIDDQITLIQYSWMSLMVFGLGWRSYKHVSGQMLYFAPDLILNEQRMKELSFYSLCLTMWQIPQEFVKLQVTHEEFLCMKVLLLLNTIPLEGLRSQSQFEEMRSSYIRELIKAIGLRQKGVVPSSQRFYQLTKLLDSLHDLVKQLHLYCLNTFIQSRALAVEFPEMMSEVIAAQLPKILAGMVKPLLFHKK

[8] = molecular target: rat glucocorticoid receptor (Rattus norvegicus, UniProt P06536); assay: as above; assay type: biochemical
Chain of rat glucocorticoid receptor (P06536 whole entry): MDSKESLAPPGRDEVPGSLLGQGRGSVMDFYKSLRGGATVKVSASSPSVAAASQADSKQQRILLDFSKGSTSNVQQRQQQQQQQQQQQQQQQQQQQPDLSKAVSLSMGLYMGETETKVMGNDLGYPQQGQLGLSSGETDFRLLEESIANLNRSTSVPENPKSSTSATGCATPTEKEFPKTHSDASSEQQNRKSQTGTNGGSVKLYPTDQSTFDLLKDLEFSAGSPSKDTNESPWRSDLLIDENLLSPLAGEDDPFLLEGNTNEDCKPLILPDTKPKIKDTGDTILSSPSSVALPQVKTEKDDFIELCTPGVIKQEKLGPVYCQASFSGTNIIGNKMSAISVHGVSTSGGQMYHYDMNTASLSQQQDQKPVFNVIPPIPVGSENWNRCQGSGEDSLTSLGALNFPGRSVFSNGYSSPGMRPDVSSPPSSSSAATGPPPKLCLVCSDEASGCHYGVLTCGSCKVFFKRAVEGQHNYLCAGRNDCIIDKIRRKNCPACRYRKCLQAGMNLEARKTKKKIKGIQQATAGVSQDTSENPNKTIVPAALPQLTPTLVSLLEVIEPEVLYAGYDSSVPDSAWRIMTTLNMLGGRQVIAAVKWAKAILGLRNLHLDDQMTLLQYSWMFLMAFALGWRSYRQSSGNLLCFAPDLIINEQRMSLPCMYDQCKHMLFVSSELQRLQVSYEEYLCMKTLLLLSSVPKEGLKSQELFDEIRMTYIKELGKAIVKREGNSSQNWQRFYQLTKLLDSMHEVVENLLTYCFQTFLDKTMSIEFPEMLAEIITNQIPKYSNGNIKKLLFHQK

[9] = Ames reverse mutation assay; assay type: cell-based
bone marrow = assay: In vivo bone marrow micronucleus test
rats of both sexes = assay: 7-day intravenous administration to rats of both sexes; assay type: in vivo
male rats = assay: Intravenous and intranasal administration to male rats; assay type: in vivo; settings: 600 μg/Kg intravenous, 900 μg/Kg intranasal, 7-day period
[10] = Onset of effect after nasal administration; assay type: in vivo, human
Source text: Because of the rapid onset of effect of nasally administered ETA, and its safety, it is expected that ETA may be administered as needed once mental fatigue is sensed, for example immediately a mentally fatigued person senses sleepiness or a symptom of sleepiness (such as excessive yawning, closing the eyes, nodding of the head, etc.) or a decline in psychomotor or cognitive performance, to improve psychomotor and cognitive performance under those circumstances. It is also expected that ETA may be administered prophylactically to improve, or at least prevent the normal decline in, psychomotor and/or cognitive performance in persons who are, or are likely to become, mentally fatigued. Thus, for example, a firefighter, whose work schedule may require him or her to be available continuously for 72 hours even though he/she is allowed to sleep at night when not actually needed, might administer ETA to improve psychomotor and/or cognitive performance when awakened at night and called to fight a fire; or a pilot of an overnight flight, who flies the aircraft during an afternoon takeoff, rests during the overnight cruise portion of the flight, but then flies the aircraft again as it approaches and lands the next morning, might administer ETA to improve psychomotor and/or cognitive performance on rising from rest to perform the approach and landing.

[11] = system: subjects with shift work sleep disorder; assay: ETA in mental fatigue associated with shift work sleep disorder (Example 5); assay type: in vivo, human; settings: intranasal as in Example 4
Source text: (§1) In subjects experiencing decreased psychomotor and/or cognitive performance in mental fatigue associated with shift work sleep disorder, a therapeutically effective amount of ETA is intranasally administered as described in Example 4. Psychomotor and cognitive performance improve in this group of subjects.

[12] = system: subjects with excessive daytime sleepiness; assay: ETA in mental fatigue associated with excessive daytime sleepiness (Example 6); assay type: in vivo, human; settings: intranasal as in Example 4
Source text: as §1, with “excessive daytime sleepiness,” for “shift work sleep disorder,”

[13] = system: subjects with MDD or peripartum depression; assay: ETA in mental fatigue associated with a depressive disorder (Example 7); assay type: in vivo, human; settings: nasal as in Example 4
Source text: as §1, with “a depressive disorder such as MDD or peripartum depression,” for “shift work sleep disorder,”, “nasally” for “intranasally”, “administered to the olfactory epithelium” for “administered”

subjects with MDD = assay: ETA supplementation in MDD subjects already receiving escitalopram (Example 8); assay type: in vivo, human; settings: ETA added to escitalopram
Experimental: In subjects experiencing decreased psychomotor and/or cognitive performance in mental fatigue associated with MDD and already receiving treatment with escitalopram, a therapeutically effective amount of ETA is intranasally administered as described in Example 4 as a supplemental or adjunctive treatment. ETA is administered separately from the antidepressant treatment and is given sequentially or proximate in time to situations requiring attention and concentration. […] Psychomotor and cognitive performance improve in this group of subjects.

[14] = system: subjects with major depressive disorder; assay: Supplemental ETA with itruvone antidepressant therapy (Example 9); assay type: in vivo, human; settings: ETA added to itruvone
Source text: Itruvone (INN, pregn-4-en-20-yn-3-one) is being developed for the treatment of MDD and is an investigational product not approved by the Food and Drug Administration. The preparation and experimental treatment of MDD with this compound are described, for example, in Monti, U.S. patent Ser. No. 10/322,138, “Treatment of Depressive Disorders,”. Both itruvone and ETA are believed to have a common mechanism of action in terms of activating olfactory chemosensory neurons in the nasal mucosa, and then activating certain hypothalamic circuits in the brain without brain or systemic uptake. In subjects receiving itruvone treatment for major depressive disorder, ETA is administered to the olfactory epithelium as described in Example 4. […] Cognitive function and psychomotor performance improve in this group of subjects. Because itruvone also is administered to the olfactory epithelium in the form of a spray or aerosol, ETA and itruvone may be administered separately, but proximate in time, or co-formulated for simultaneous intranasal administration.

[15] = system: subjects with peripartum depression; assay: ETA in peripartum depression (Example 10); assay type: in vivo, human; settings: as in Example 4
Experimental: In subjects experiencing decreased psychomotor and/or cognitive performance associated with peripartum depression, a therapeutically effective amount of ETA is administered to the olfactory epithelium as described in Example 4. ETA is administered separately from any other antidepressant therapy and is given sequentially or proximate in time to such other medications. Depressive scores reduce when the subjects are evaluated. Psychomotor and cognitive performance improve in this group of subjects.

subjects with ADHD = assay: ETA in ADHD (Example 11); assay type: in vivo, human; settings: intranasal as in Example 4
Experimental: In subjects experiencing decreased psychomotor and/or cognitive performance associated with ADHD, a therapeutically effective amount of ETA is administered intranasally as described in Example 4. Psychomotor and cognitive performance improve in this group of subjects.

[16] = system: subjects with mild cognitive impairment; assay: ETA in mild cognitive impairment (Example 12); assay type: in vivo, human; settings: intranasal as in Example 4
Experimental: In subjects experiencing decreased psychomotor and/or cognitive performance associated with mild cognitive impairment, a therapeutically effective amount of ETA is administered intranasally as described in Example 4. Psychomotor and cognitive performance improve in this group of subjects.

vomeronasal organ = settings: cited from earlier work
healthy male volunteers [17] = settings: in vivo
[18] = system: healthy volunteers of both sexes; assay: Pilot human trials, nasal administration
healthy male volunteers [19] = assay: Adverse events in the efficacy study in mentally fatigued men; settings: ETA nasal spray 1600 ng per administration, all subjects
[20] = both men and women, more pronounced in men

## NC(=O)C[S+]([O-])C(c1ccccc1)c1ccccc1 (stereo not shown) [modafinil]
[1]
  overall depression scores, remission rates and fatigue: improves
[2]
  ADHD symptoms: significantly improved
  attention: significantly improved

## Cn1c(=O)c2c(ncn2C)n(C)c1=O [caffeine]
Healthy male volunteers [3]; isochronous stimuli
  number of errors: significantly decrease
Healthy male volunteers [3]; stochastic stimuli
  number of errors: significantly decrease
US adults
  depression symptoms measured by the PHQ-9 test: reduces depression symptoms
[4]
  reaction time and cognitive performance: improved
Depressed patients; chronic supplementation, 60 mg, subjects taking escitalopram
  depressive scores (antidepressant action): produced rapid antidepressant action by reduction of depressive scores
Depressed patients; low doses, depressed patients
  cognitive performance: improved
mice
  antidepressant-like activity of six typical antidepressants: enhancement
Healthy male volunteers [5]; midnight test
  Time Estimation test improvement: statistically significant

## CC(=O)Oc1ccc2c(c1)CC[C@@H]1[C@@H]2CC[C@]2(C)C=CC[C@@H]12 [ETA, 1,3,5(10),16-Estratetraen-3-yl acetate]
[6]; dependence on concentration
  amplitude of the response: increased depending on the concentration of the compound
[6]; isolated human neurons
  inward currents in the membrane: induced inward currents
[7]
  electrotonic depolarization: electrotonic depolarization
Rat estrogen receptor
  agonist or antagonist activity: no agonist or antagonist activity
Rat androgen receptor
  agonist or antagonist activity: no agonist or antagonist activity
Rat progestin receptor
  agonist or antagonist activity: no agonist or antagonist activity
[8]
  agonist or antagonist activity: no agonist or antagonist activity
[9]
  genotoxicity: mutagenic or clastogenic potential: no evidence of mutagenic or clastogenic potential
Bone marrow
  genotoxicity: mutagenic or clastogenic potential: no evidence of mutagenic or clastogenic potential
Rats of both sexes; 1 mg/day intravenously, rats of both sexes, 7-day period
  mortality, adverse symptoms, changes in behavior: no mortality or adverse symptoms, or changes in behavior
Rats of both sexes; rat, in vivo, iv
  macroscopic or microscopic changes in organs: no macroscopic or microscopic changes
Male rats
  mortality, adverse symptoms, changes in behavior: no mortality or adverse symptoms, or changes in behavior
Healthy male volunteers [3]; isochronous stimuli
  number of errors: significantly decrease
Healthy male volunteers [3]; isochronous
  variability in Reaction Time test: less variability
Healthy male volunteers [3]; isochronous, p<0.001
  effect on Reaction Time test compared with caffeine: significantly better than the effect of caffeine
Healthy male volunteers [3]; stochastic stimuli
  number of errors: significantly decrease
Healthy male volunteers [3]; stochastic
  variability in Reaction Time test: less variability
Healthy male volunteers [3]; stochastic, p<0.0001
  effect on Reaction Time test compared with caffeine: significantly better than the effect of caffeine
[10]
  time to improvement in psychomotor and cognitive performance: ≤ 15 min
  time to initial physiological response: within a minute
[11]
  psychomotor and cognitive performance: improve
[12]
  psychomotor and cognitive performance: improve
[13]
  psychomotor and cognitive performance: improve
Subjects with MDD
  depressive scores: reduce beyond that of the escitalopram alone
  psychomotor and cognitive performance: improve
[14]
  cognitive function and psychomotor performance: improve
  depressive scores: reduce beyond that of itruvone alone
[15]
  depressive scores: reduce
  psychomotor and cognitive performance: improve
Subjects with ADHD
  psychomotor and cognitive performance: improve
[16]
  psychomotor and cognitive performance: improve
Vomeronasal organ; 60 pg dose to the vomeronasal organ, vs control (propylene glycol), men vs women
  change in mass receptor potential (electrovomerogram): higher amplitude in men
Vomeronasal organ; both men and women, more pronounced in men (FIGS. 6G and 6H)
  skin temperature: increase
Vomeronasal organ; [20]
  electrovomerogram: increase
  α-cortical activity: increase
Vomeronasal organ; men, vs control (FIG. 4C)
  skin temperature: increase
Vomeronasal organ; men, vs control
  integrated electrovomerogram: increase
  skin resistance: decrease
Vomeronasal organ; men
  electrodermal activity: decrease
Healthy male volunteers [17]
  serious adverse events: no serious adverse events
[18]; intranasal administration
  alpha frequency band of the electroencephalogram: did not have significant effect
  beta frequency band of the electroencephalogram: did not have significant effect
  body temperature: did not have significant effect
  duration of the QTc intervals of the electrocardiogram: did not change
  frequency of electrodermal activity events (skin conductance): significantly increased
[18]; nasal administration, healthy volunteers
  tolerability: well tolerated
Healthy male volunteers [19]
  tolerability: well tolerated
Healthy male volunteers [5]; 3 a.m. test
  Time Estimation test improvement: significantly improved
Healthy male volunteers [5]; midnight and 3 a.m. tests, p<0.01
  Time Estimation test improvement relative to caffeine: significantly improved
Healthy male volunteers [5]; midnight test
  Time Estimation test improvement: significantly improved
